From article doi:10.1101/2025.07.16.665058v1 (biorxiv, 2025)
Ends that are not written are not given here.

Experiments:
rat ASIC3 (rASIC3) [1] = target: T1, rat ASIC3 (rASIC3) (Rattus norvegicus, UniProt O35240); assay: whole-cell patch clamp, HEK293, potentiation of pH5.5-evoked sustained current; type: cell-based; conditions: peptide applied in pH 7.4 resting solution, pH 5.5 pulse; positive modulator
T1 sequence (O35240 1-533): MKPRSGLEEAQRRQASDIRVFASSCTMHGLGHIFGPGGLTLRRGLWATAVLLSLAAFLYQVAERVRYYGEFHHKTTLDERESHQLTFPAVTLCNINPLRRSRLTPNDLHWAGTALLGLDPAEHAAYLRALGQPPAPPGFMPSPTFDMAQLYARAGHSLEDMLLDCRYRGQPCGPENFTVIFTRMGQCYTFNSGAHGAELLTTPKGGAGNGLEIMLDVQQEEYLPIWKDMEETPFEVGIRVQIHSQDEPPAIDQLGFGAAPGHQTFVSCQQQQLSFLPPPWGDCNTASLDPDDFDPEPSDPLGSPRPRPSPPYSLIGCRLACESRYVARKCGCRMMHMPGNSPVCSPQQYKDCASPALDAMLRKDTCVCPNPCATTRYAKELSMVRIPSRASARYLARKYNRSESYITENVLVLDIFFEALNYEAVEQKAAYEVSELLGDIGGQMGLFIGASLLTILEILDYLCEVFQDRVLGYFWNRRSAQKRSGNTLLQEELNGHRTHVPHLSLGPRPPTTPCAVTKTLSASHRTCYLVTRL

rat ASIC3 (rASIC3) [2] = target: T1, rat ASIC3 (rASIC3); assay: whole-cell patch clamp, HEK293, pH5.5-evoked sustained current at […] s; type: cell-based; conditions: peptide in pH 7.4 resting solution, pH 5.5 pulse, -50 mV

“FRCCRF-NH2 (cysteine pairing not given here)” showed an EC50 (rat ASIC3 (rASIC3) [1]) of 4.73 ± 0.8 µM.

With “FRCRCF-NH2 (cysteine pairing not given here)” the EC50 (rat ASIC3 (rASIC3) [1]) was 4.41 ± 0.95 µM.

In the case of FRC̄C̄RFamide, the “Mean fold increase (I/Ictrl)” value (rat ASIC3 (rASIC3) [2]) is reported as 24.22 fold.

In the case of FRC̄R̄C̄Famide, the “Mean fold increase (I/Ictrl)” value (rat ASIC3 (rASIC3) [2]) is reported as 34.08 fold.
